{"source": "patent US7759101B2", "about": "“Ginsenoside glycosidases hydrolyzing ginsenoside sugar moieties and uses thereof” (priority 2000, dated 2010)", "key": {"[1]": {"tested_on": "bacterial ginsenoside glycosidases", "assay": "Hydrolysis of Rd with ginsenoside glycosidases from bacteria", "format": "biochemical, Bacillus sp. JF", "conditions": "0.5% Rd in acetate buffer containing 20% ethanol, 70° C., 16 hours", "experimental": "Thermophilic and aerobic Bacillus sp. JF (Fengxie Jin et al., J. Gen. Appl. Microbiol., 36, 415-434, 1990) was cultured with aeration and stirring in a medium containing 0.5% by weight of ginseng extracts, 1% by weight of wheat bran extracts and 0.3% tryptone with a pH of 7.2 at 60° C. for 36 hours. Cells were removed by centrifugation and 3000 ml of 95% ethanol was added to 1000 ml of the cell-free supernatant. The solution was allowed to stand at 4° C. overnight and then centrifuged to collect the pellets. The enzyme protein pellets were dissolved in 50 ml of 0.01M acetate buffer pH 5. Insoluble materials were removed by centrifugation and a crude enzyme solution was obtained.\n10 ml of the enzyme solution was allowed to react with 10 ml of 0.5% Rd in acetate buffer containing 20% ethanol at 70° C. for 16 hours. […] The enzymes can also hydrolyze β-(1→2)-glucoside of Rg3 to give Rh2."}, "[2]": {"tested_on": "Cellulose β-glucosidase of Clostridium and Bacillus (EC 3.2.1.21)", "assay": "Comparison: hydrolysis of ginsenosides with cellulose β-glucosidase of Clostridium and Bacillus", "format": "biochemical, Clostridium thermocopiriae and Bacillus sp. AX", "conditions": "substrate 0.5%, pH 5.0, 30° C., 18 hours", "description": "(§1) To observe the differences between the ginsenoside glycosidases of the invention and known exo-cellulases, the ginsenoside glycosidases of the invention were compared with cellulose β-glucosidase (E.C. 3.2.1.21) in two reactions with 0.5% ginsenosides Rb1 or Rd as substrate.\nCellulose β-glucosidases (EC 3.2.1.21) from Clostridium thermocopiriae and Bacillus sp. AX cannot hydrolyze any glycosides of ginsenosides. The cellulose β-glucosidase from almond slightly hydrolyzes the C-20 glycoside of Rb1, Rb2 and Rc to give ginsenoside Rd, but it cannot hydrolyze the glucoside at C-3. Ginsenoside glycosidase II is similar to cellulose β-glucosidase from almond, but it only slightly hydrolyzes Rd. The properties of ginsenoside glycosidase III are totally different from those of cellulose β-glucosidases."}, "[3]": {"tested_on": "ginsenoside glycosidases from Streptomyces", "assay": "Hydrolysis of Rd with ginsenoside glycosidases from Streptomyces", "format": "biochemical, Streptomyces sp. FFCCDL-2 g", "conditions": "1% Rd in acetate buffer containing 20% ethanol, 50° C., 20 hours", "experimental": "Streptomyces sp. FFCCDL-2 g (available from Food Fermentation Culture Collection of Dalian Institute of Light Industry) was cultured at 30° C. for 48 hours in a medium containing 1% by weight of ginseng extracts and 3% by weight of wheat bran extracts. Cells were removed by centrifugation, after which (NH4)2SO4 powder was added to 300 ml of the cell-free supernatant to 70% saturation to precipitate the enzymes. The solution was stored at 4° C. overnight and centrifuged to collect the pellets. The pellets were resuspended and the suspension was dialyzed against 0.01M acetate buffer pH 5. Impurities were removed by centrifugation, and 15 ml of crude enzyme solution was obtained.\n10 ml of the enzyme solution was allowed to react with 10 ml of 1% Rd in acetate buffer containing 20% ethanol at 50° C. for 20 hours."}, "[4]": {"tested_on": "ginsenoside glycosidase III", "assay": "Hydrolysis of ginsenoside Rd with ginsenoside glycosidase III (Fraction 18)", "format": "biochemical, Aspergillus niger", "conditions": "substrate 0.5%, pH 5.0, 30° C., 18 hours", "experimental": "Ginsenoside glycosidase II was purified from the crude enzyme solution obtained in 1.1 by HPLC. Separation column: Bio-Scale Q (BioRad), 2 ml/tube. 1 ml of the crude enzyme solution was loaded on the column, and eluted with solvent A (25 mM Tris-HCl buffer pH 7.4) and solvent B (0.5M NaCl in 20 mM Tris-HCl buffer pH 7.4). Fraction 18 appeared as a single dot when running on a SDS-polyacrylamide gel and thus represented a purified enzyme. The enzyme was designated as ginsenoside glycosidase III. This enzyme can hydrolyze the diglucosyl groups at C-3 of aglycone, converting Rd and Rg3 to C-K and aglycone.\nas §1"}, "[5]": {"tested_on": "ginsenoside glycosidase III from ginseng plant", "assay": "Hydrolysis of Rd with fraction 37 (ginsenoside glycosidase III) from ginseng plant", "format": "biochemical", "conditions": "Fraction 37; substrate 0.5%; 50° C., pH 5.0, 18 hours", "experimental": "200 g of fresh ginseng root was cut into pieces and added to 600 ml of 0.02 M acetate buffer pH 5. Supernatant was obtained by filtration after the mixture stand at 40° C. for 2 hours. To the supernatant (NH4)2SO4 was added gradually until 70% saturation and the mixture stand overnight at 4° C. Then protein pellets were collected by centrifugation and redissolved in 15 ml of distilled water. The solution was dialyzed against 0.02 M Tris-HCl pH 7.4. Insolubles were removed by centrifugation and the volume of the supernatant was adjusted to 20 ml.\n5 ml of the enzyme solution was subjected to a DEAE-Cellulose DE-25 column (Whatman, 1.4×6.7 cm). The column was eluted with a KCl gradient (0.06, 0.12, 0.18 and 0.24 M) in 0.02 M Tris-HCl pH 7.4. After elution, each fraction was tested for the activity of hydrolyzing ginsenosides. […] Fraction 52 can also hydrolyze the glucosidic bond at the twentieth carbon atom of Rb and Rc to give ginsenoside F2."}, "[6]": {"tested_on": "Enzymes from Animal Liver", "assay": "Hydrolysis of Rb1 with enzymes from animal liver", "format": "biochemical, bovine", "conditions": "1% Rb1 solution, pH 5, 20% ethanol, 40° C., 20 hours", "experimental": "100 g of bovine liver was minced and added to 300 ml of 0.01 M acetate buffer pH 5 for extraction under room temperature for two hours. The mixture was centrifuged and (NH4)2SO4 was added to the supernatant to 70% saturation to precipitate the enzymes. The mixture was stored at 4° C. overnight. Precipitates were collected by centrifugation and dialyzed against 0.01 M acetate buffer pH 5. Impurities were removed and 15 ml of enzyme solution was obtained. 10 ml of the enzyme solution was allowed to react with 10 ml of 1% Rb1 solution (in 0.01 M acetate buffer pH 5 containing 20% ethanol) at 40° C. for 20 hours."}, "[7]": {"tested_on": "Enzymes from Plant Seeds—Almond", "assay": "Hydrolysis of Rb1 with enzymes from almond", "format": "biochemical", "conditions": "1% Rb1 solution, pH 5, 20% ethanol, 50° C., 14 hours", "experimental": "100 g of almond was ground and added to 300 ml of 0.01 M acetate buffer pH 5 for extraction under room temperature for two hours. The mixture was centrifuged. (NH4)2SO4 was added to the supernatant to 60% saturation to precipitate the enzymes. The mixture was stored at 4° C. overnight. Precipitates were collected by centrifugation and dialyzed against 0.01 M acetate buffer pH 5. Impurities were removed and 30 ml of enzyme solution was obtained. 10 ml of the enzyme solution was allowed to react with 10 ml of 1% Rb1 solution (in 0.01 M acetate buffer pH 5 containing 20% ethanol) at 50° C. for 14 hours."}}, "data": [{"smiles": "CC(C)=CCC[C@](C)(O[C@@H]1O[C@H](CO)[C@@H](O)[C@H](O)[C@H]1O)[C@H]1CC[C@]2(C)[C@@H]1[C@H](O)C[C@@H]1[C@@]3(C)CC[C@H](O[C@@H]4O[C@H](CO)[C@@H](O)[C@H](O)[C@H]4O[C@@H]4O[C@H](CO)[C@@H](O)[C@H](O)[C@H]4O)C(C)(C)[C@@H]3CC[C@]12C", "note": "[Rd, ginsenoside Rd]", "values": [{"measurement": "Rd converted to ginsenoside F2", "setting": "[1]", "value": 60, "unit": "%"}, {"measurement": "Percentage of Rb1 in the reaction product", "setting": "[2]", "value": 100, "unit": "%"}, {"measurement": "Rd converted to ginsenoside F2", "setting": "[3]", "value": 50, "unit": "%"}, {"measurement": "Percentage of C—K in the reaction product", "setting": "[4]", "value": 36, "unit": "%"}, {"measurement": "Percentage of Rd in the reaction product", "setting": "[4]", "value": 61, "unit": "%"}, {"measurement": "Percentage of aglycone in the reaction product", "setting": "[4]", "value": 3, "unit": "%"}, {"measurement": "Percentage of C—K in the reaction product", "setting": "[5]", "value": 55, "unit": "%"}, {"measurement": "Percentage of Rd in the reaction product", "setting": "[5]", "value": 45, "unit": "%"}]}, {"smiles": "CC(C)=CCC[C@](C)(O[C@@H]1O[C@H](CO[C@@H]2O[C@H](CO)[C@@H](O)[C@H](O)[C@H]2O)[C@@H](O)[C@H](O)[C@H]1O)[C@H]1CC[C@]2(C)[C@@H]1[C@H](O)C[C@@H]1[C@@]3(C)CC[C@H](O[C@@H]4O[C@H](CO)[C@@H](O)[C@H](O)[C@H]4O[C@@H]4O[C@H](CO)[C@@H](O)[C@H](O)[C@H]4O)C(C)(C)[C@@H]3CC[C@]12C", "note": "[Rb1, ginsenoside Rb1]", "values": [{"measurement": "Percentage of Rb1 in the reaction product", "setting": "[2]", "value": 100, "unit": "%"}, {"measurement": "Rb1 converted to ginsenosides with lower sugar contents", "setting": "[6]", "value": 50, "unit": "%"}, {"measurement": "Rb1 converted to ginsenosides with lower sugar contents", "setting": "[7]", "value": 40, "unit": "%"}]}]}
